Converted amounts (≈) assume the structure as drawn. “Also recorded” adds a separate entry of the source. Where two headings read alike, the source gives them in different places.
Assays:
Type in all cases: physicochemical
[1] = Approximate solubility at 25° C. and 50° C. (visual)
Protocol: About 5 mg of Compound 1 Form A was weighed to a 2 mL glass vial. 20 μL aliquots of each solvent were added to dissolve the drug substance at 25° C. About 10 mg of Compound 1 Form A was weighed to a 2 mL glass vial. 20 μL aliquots of each solvent were added to dissolve the drug substance at 50° C. Vortex and sonication were applied to assist dissolution. Maximum volume of each solvent added was 1 mL. Approximate solubility was determined by visual observation.
About 5 mg of Compound 1 Form B was weighed to a 2 mL glass vial. 20 μL aliquots of each solvent were added to dissolve the drug substance at 25° C. About 10 mg of Compound 1 Form B was weighed to a 2 mL glass vial. […] aliquots of each solvent were added to dissolve the drug substance at 50° C. Vortex and sonication were applied to assist dissolution. Maximum volume of each solvent added is 1 mL. Approximate solubility was determined by visual observation.

[2] = Bulk stability of Compound 1 Form B (1 week stress); details: for Bulk (XRPD) crystallinity / Bulk (XRPD) form / Color / Purity, Bulk (HPLC): Solid state
Protocol: Compound 1 Form B was placed at 25° C./92% RH in an open container, at 40° C./75% RH in an open container and at 60RC in a closed container for 1 week. Samples after the stress were characterized by XRPD and HPLC and inspected for color change.

[3] = Compression simulation experiments; details: for Comments: color / Comments: crystallinity / XRPD: compressed 5 minutes
Protocol: About 20 mg of Compound 1 Form B was compressed for 5 minutes under 2 MPa and 10 MPa with a hydraulic press. Potential form change and degree of crystallinity were evaluated by XRPD.

[4] = 25° C./92% RH, open container, 1 week
[5] = 40° C./75% RH, open container, 1 week
[6] = 60° C., tight container, 1 week

CCN(C)S(=O)(=O)Nc1ccc(F)c(Oc2ccc3ncn([C@H]4COC5(CCN(C(=O)CC6(O)CCN(c7cc8c(cc7F)c(N7CCC(=O)NC7=O)nn8C)CC6)CC5)C4)c(=O)c3c2)c1C#N [Compound 1 Form A]
solubility ([1]; 1,4-Dioxane, 25° C., listed as Form A): >250 mg/mL | solubility ([1]; 1,4-Dioxane, 50° C., listed as Form A): >500 mg/mL | solubility ([1]; 2-MeTHF, 25 °C, organic solvent or mixture, thermodynamic from solid, 2-MeTHF, 25° C., read-out: Solubility): 5 to 7 mg/mL (≈ 5.22 to 7.31 mM) | solubility ([1]; 2-MeTHF, 50 °C, organic solvent or mixture, thermodynamic from solid, 2-MeTHF, 50° C., read-out: Solubility): < 10 mg/mL | solubility ([1]; Acetone, 25° C., listed as Form A): 13 to 17 mg/mL | solubility ([1]; Acetone, 50° C., listed as Form A): 25 to 29 mg/mL | solubility ([1]; Acetonitrile, 25° C., listed as Form A): 13 to 17 mg/mL | solubility ([1]; Acetonitrile, 50° C., listed as Form A): 25 to 33 mg/mL | solubility ([1]; DCM, 25° C., listed as Form A): >250 mg/mL | solubility ([1]; DMSO, 25 °C, organic solvent or mixture, thermodynamic from solid, DMSO, 25° C., read-out: Solubility): ≥ 250 mg/mL | solubility ([1]; DMSO, 50 °C, organic solvent or mixture, thermodynamic from solid, DMSO, 50° C., read-out: Solubility): > 500 mg/mL | solubility ([1]; MTBE, 25 °C, organic solvent or mixture, thermodynamic from solid, MTBE, 25° C., read-out: Solubility): < 5 mg/mL | solubility ([1]; MTBE, 50 °C, organic solvent or mixture, thermodynamic from solid, MTBE, 50° C., read-out: Solubility): < 10 mg/mL | solubility ([1]; THF, 25° C., listed as Form A): >250 mg/mL | solubility ([1]; THF, 50° C., listed as Form A): >500 mg/mL | solubility ([1]; ethanol, 25 °C, organic solvent or mixture, thermodynamic from solid, Ethanol, 25° C., read-out: Solubility): < 5 mg/mL | solubility ([1]; ethanol, 50 °C, organic solvent or mixture, thermodynamic from solid, Ethanol, 50° C., read-out: Solubility): < 10 mg/mL | solubility ([1]; ethyl acetate, 25 °C, organic solvent or mixture, thermodynamic from solid, Ethyl acetate, 25° C., read-out: Solubility): < 5 mg/mL | solubility ([1]; ethyl acetate, 50 °C, organic solvent or mixture, thermodynamic from solid, Ethyl acetate, 50° C., read-out: Solubility): < 10 mg/mL | solubility ([1]; heptane, 25 °C, organic solvent or mixture, thermodynamic from solid, Heptane, 25° C., read-out: Solubility): < 5 mg/mL | solubility ([1]; heptane, 50 °C, organic solvent or mixture, thermodynamic from solid, Heptane, 50° C., read-out: Solubility): < 10 mg/mL | solubility ([1]; isopropanol, 25 °C, organic solvent or mixture, thermodynamic from solid, Isopropanol, 25° C., read-out: Solubility): < 5 mg/mL | solubility ([1]; isopropanol, 50 °C, organic solvent or mixture, thermodynamic from solid, Isopropanol, 50° C., read-out: Solubility): < 10 mg/mL | solubility ([1]; isopropyl acetate, 25 °C, organic solvent or mixture, thermodynamic from solid, Isopropyl acetate, 25° C., read-out: Solubility): < 5 mg/mL | solubility ([1]; isopropyl acetate, 50 °C, organic solvent or mixture, thermodynamic from solid, Isopropyl acetate, 50° C., read-out: Solubility): < 10 mg/mL | solubility ([1]; methanol, 25 °C, organic solvent or mixture, thermodynamic from solid, Methanol, 25° C., read-out: Solubility): ~3 mg/mL (≈ 3.13 mM) | solubility ([1]; methanol, 50 °C, organic solvent or mixture, thermodynamic from solid, Methanol, 50° C., read-out: Solubility): 5 to 10 mg/mL (≈ 5.22 to 10.4 mM) | solubility ([1]; methyl ethyl ketone, 25 °C, organic solvent or mixture, thermodynamic from solid, Methyl ethyl ketone, 25° C., read-out: Solubility): 14 to 17 mg/mL (≈ 14.6 to 17.7 mM) | solubility ([1]; methyl ethyl ketone, 50 °C, organic solvent or mixture, thermodynamic from solid, Methyl ethyl ketone, 50° C., read-out: Solubility): 25 to 33 mg/mL (≈ 26.1 to 34.4 mM) | solubility ([1]; toluene, 25 °C, organic solvent or mixture, thermodynamic from solid, Toluene, 25° C., read-out: Solubility): < 5 mg/mL | solubility ([1]; toluene, 50 °C, organic solvent or mixture, thermodynamic from solid, Toluene, 50° C., read-out: Solubility): < 10 mg/mL | solubility ([1]; water, 25 °C, water, thermodynamic from solid, Water, 25° C., read-out: Solubility): < 5 mg/mL | solubility ([1]; water, 50 °C, water, thermodynamic from solid, Water, 50° C., read-out: Solubility): < 10 mg/mL

CCN(C)S(=O)(=O)Nc1ccc(F)c(Oc2ccc3ncn([C@H]4COC5(CCN(C(=O)CC6(O)CCN(c7cc8c(cc7F)c(N7CCC(=O)NC7=O)nn8C)CC6)CC5)C4)c(=O)c3c2)c1C#N [Compound 1 Form B]
Bulk (XRPD) crystallinity [2, 4]: No change in crystallinity | Bulk (XRPD) form [2, 4]: Form B | Color [2, 4]: No change of color | Purity, Bulk (HPLC) [2, 4]: 99.2% | Bulk (XRPD) crystallinity [2, 5]: No change in crystallinity | Bulk (XRPD) form [2, 5]: Form B | Color [2, 5]: No change of color | Purity, Bulk (HPLC) [2, 5]: 99.3% | Bulk (XRPD) crystallinity [2, 6]: No change in crystallinity | Bulk (XRPD) form [2, 6]: Form B | Color [2, 6]: No change of color | Purity, Bulk (HPLC) [2, 6]: 99.3% | Bulk (XRPD) form ([2]; photo (visible light, 1.2 million lux-hrs)): Form B | Bulk stability (purity, crystal form, crystallinity) ([2]; one week, 25° C./92% RH open, 40° C./75% RH open, 60° C. tight container): excellent chemical and physical stability without any changes in purity, crystal form and crystallinity; also recorded: excellent chemical and physical stability without any changes in purity, crystal form and/or crystallinity | Morphic form stability under compression ([3]; 2 MPa and 10 MPa): excellent morphic form stability | Comments: color ([3]; 2 MPa): Slight discoloration. | Comments: crystallinity ([3]; 2 MPa): Slight decrease in crystallinity; | XRPD ([3]; 2 MPa): Form B | Comments: color ([3]; 10 MPa): Slight discoloration. | Comments: crystallinity ([3]; 10 MPa): Slight decrease in crystallinity; | XRPD ([3]; 10 MPa): Form B | solubility ([1]; 1,4-Dioxane, 25° C., listed as Form B): 20~25 mg/mL | solubility ([1]; 1,4-Dioxane, 50° C., listed as Form B): 28~40 mg/mL | solubility ([1]; 2-MeTHF, 25° C.): <5 mg/mL | solubility ([1]; 2-MeTHF, 50° C.): <5 mg/mL | solubility ([1]; Acetone, 25° C., listed as Form B): <5 mg/mL | solubility ([1]; Acetone, 50° C., listed as Form B): <5 mg/mL | solubility ([1]; Acetonitrile, 25° C., listed as Form B): <5 mg/mL | solubility ([1]; Acetonitrile, 50° C., listed as Form B): <5 mg/mL | solubility ([1]; DCM, 25° C., listed as Form B): 83~125 mg/mL | solubility ([1]; DMSO, 25° C.): at least 250 mg/mL | solubility ([1]; DMSO, 25° C., listed as Form B): >250 mg/mL | solubility ([1]; Ethanol, 50° C.): <5 mg/mL | solubility ([1]; Heptane, 50° C.): <5 mg/mL | solubility ([1]; Isopropanol, 50° C.): <5 mg/mL | solubility ([1]; MTBE, 50° C.): <5 mg/mL | solubility ([1]; Methanol, 25° C.): <5 mg/mL | solubility ([1]; Methanol, 50° C.): <5 mg/mL | solubility ([1]; THF, 25° C., listed as Form B): 10~13 mg/mL | solubility ([1]; THF, 50° C., listed as Form B): 16~20 mg/mL | solubility ([1]; Toluene, 50° C.): <5 mg/mL | solubility ([1]; Water, 50° C.): <5 mg/mL
